The first assay relates to Echinochloa crus-galli. Briefly: Post-emergence herbicidal effect against ECHCG. It counts as in vivo. Conditions: 1280 g/ha, visual score after about 3 weeks, 100% = plants have died, 0% = like control plants. Summed up:
(§1)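 Visual score, % action vs untreated controls (100% = plants dead, 0% = like controls), read ~3 wk after spraying. Greenhouse plants in sandy loam, one-leaf stage, 2–3 wk post-sowing. WP/EC as aqueous spray, 600–800 l/ha, 0.2% wetting agent.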
For the compound `COC(=O)CNC(=O)CSc1nn(-c2ccccc2F)c(-c2cncc(F)c2)c1Br` [VII-009], the “Post-emergence action against ECHCG” value is 90%.

A further assay deals with Veronica persica. Briefly: Post-emergence herbicidal effect against VERPE. It counts as in vivo. Conditions: 1280 g/ha, visual assessment about 3 weeks after treatment, 100% = plants have died, 0% = like control plants. The essentials:
as §1
Turning to `CCOC(=O)CSc1nn(-c2ccc(F)cc2)c(-c2ccc(F)cc2)c1Br` [Example I-019], the “Post-emergence action against VERPE” value is on record as 100%.
The same measure, in the same setting: then `COC(=O)CNC(=O)CSc1nn(-c2ccccc2F)c(-c2cncc(F)c2)c1Br` [VII-009], with 90%.

The next assay deals with Setaria viridis. Briefly: Post-emergence herbicidal effect against SETVI. Conditions: 1280 g/ha, visual assessment about 3 weeks after treatment, 100% = plants have died, 0% = like control plants. Format: in vivo. The essentials:
as §1
`CCOC(=O)CSc1nn(-c2ccc(F)cc2)c(-c2ccc(F)cc2)c1Br` [Example I-019]: the “Post-emergence action against SETVI” value is given as 90%.
Consider `COC(=O)CNC(=O)CSc1nn(-c2ccccc2F)c(-c2cncc(F)c2)c1Br` [VII-009], for which the “Post-emergence action against SETVI” value worked out at 90%.

The test system of another assay is Setaria viridis. Briefly: Pre-emergence herbicidal effect against SETVI. Format: in vivo. Conditions: 1280 g/ha, visual score after 3 weeks, 100% = plants have died, 0% = like control plants. The essentials:
(§2)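 Pre-emergence soil-surface spray, WP/EC formulations in water at 600 to 800 L/ha plus 0.2% wetting agent, sandy loam, greenhouse, visual % damage vs untreated at 3 weeks (100% = plants dead, 0% = like control).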
As for `CCOC(=O)CSc1nn(-c2ccc(F)cc2)c(-c2ccc(F)cc2)c1Br` [Example I-019], the “Pre-emergence action against SETVI” value is recorded as 100%.
The same measure, in the same setting: as for `COC(=O)CNC(=O)CSc1nn(-c2ccccc2F)c(-c2cncc(F)c2)c1Br` [VII-009], the figure is 100%.

The test system of a further assay is Abutylon threophrasti. Briefly: Post-emergence herbicidal effect against ABUTH. It counts as in vivo. Conditions: 1280 g/ha, visual assessment about 3 weeks after treatment, 100% = plants have died, 0% = like control plants. Summed up:
as §1
As to `CCOC(=O)CSc1nn(-c2ccc(F)cc2)c(-c2ccc(F)cc2)c1Br` [Example I-019], the “Post-emergence action against ABUTH” value worked out at 100%.
Take `COC(=O)CNC(=O)CSc1nn(-c2ccccc2F)c(-c2cncc(F)c2)c1Br` [VII-009]: the “Post-emergence action against ABUTH” value is reported as 90%.

The next assay concerns Abutylon threophrasti. Briefly: Pre-emergence herbicidal effect against ABUTH. Format: in vivo. Conditions: 1280 g/ha, visual score after 3 weeks, 100% = plants have died, 0% = like control plants. From the text: (§3) 1. Pre-emergence herbicidal effect and crop plant compatibility Seeds of monocotyledonous and dicotyledonous weed plants and crop plants are laid out in sandy loam soil in wood-fibre pots and covered with soil. The compounds of the invention, formulated in the form of wettable powders (WP) or as emulsion concentrates (EC), are then applied to the surface of the covering soil as aqueous suspension or emulsion at a water application rate equating to 600 to 800 L/ha with addition of 0.2% wetting agent. After the treatment, the pots are placed in a greenhouse and kept under good growth conditions for the trial plants. The damage to the test plants is scored visually after a test period of 3 weeks by comparison with untreated controls (herbicidal activity in percent (%): 100% activity=the plants have died, 0% activity=like control plants). [table]
Turning to `CCOC(=O)CSc1nn(-c2ccc(F)cc2)c(-c2ccc(F)cc2)c1Br` [Example I-019], the “Pre-emergence action against ABUTH” value amounted to 90%.
In the case of `COC(=O)CNC(=O)CSc1nn(-c2ccccc2F)c(-c2cncc(F)c2)c1Br` [VII-009], the “Pre-emergence action against ABUTH” value is recorded as 90%.

In a further assay the test system is Echinochloa crus-galli. Briefly: Pre-emergence herbicidal effect against ECHCG. Conditions: 1280 g/ha, visual score after 3 weeks, 100% = plants have died, 0% = like control plants. It counts as in vivo. The essentials:
as §2
For `CCOC(=O)CSc1nn(-c2ccc(F)cc2)c(-c2ccc(F)cc2)c1Br` [Example I-019], the “Pre-emergence action against ECHCG” value is listed as 100%.
The same measure, in the same setting: as for `COC(=O)CNC(=O)CSc1nn(-c2ccccc2F)c(-c2cncc(F)c2)c1Br` [VII-009], the figure is 90%.

The test system of the next assay is Veronica persica. Briefly: Pre-emergence herbicidal effect against VERPE. It counts as in vivo. Conditions: 1280 g/ha, visual score after 3 weeks, 100% = plants have died, 0% = like control plants. Summed up:
as §2
On to `CCOC(=O)CSc1nn(-c2ccc(F)cc2)c(-c2ccc(F)cc2)c1Br` [Example I-019], for which the “Pre-emergence action against VERPE” value is reported as 100%.
Regarding `COC(=O)CNC(=O)CSc1nn(-c2ccccc2F)c(-c2cncc(F)c2)c1Br` [VII-009], the “Pre-emergence action against VERPE” value stood at 100%.

The test system of another assay is Tripleurospermum inodorum. Briefly: Pre-emergence herbicidal effect against MATIN. Conditions: 1280 g/ha, visual score after 3 weeks, 100% = plants have died, 0% = like control plants. Format: in vivo. Summed up: as §2
Take `CCOC(=O)CSc1nn(-c2ccc(F)cc2)c(-c2ccc(F)cc2)c1Br` [Example I-019]: the “Pre-emergence action against MATIN” value stood at 100%.
The same measure, in the same setting: then `COC(=O)CNC(=O)CSc1nn(-c2ccccc2F)c(-c2cncc(F)c2)c1Br` [VII-009], with 100%.

The subject of the next assay is Digitaria sanguinalis. Briefly: Pre-emergence herbicidal effect against DIGSA. Conditions: 1280 g/ha, visual score after 3 weeks, 100% = plants have died, 0% = like control plants. Format: in vivo. The essentials:
as §2
As to `CCOC(=O)CSc1nn(-c2ccc(F)cc2)c(-c2ccc(F)cc2)c1Br` [Example I-019], the “Pre-emergence action against DIGSA” value is given as 100%.

A further assay concerns Tripleurospermum inodorum. Briefly: Post-emergence herbicidal effect against MATIN. Format: in vivo. Conditions: 1280 g/ha, visual assessment about 3 weeks after treatment, 100% = plants have died, 0% = like control plants. Summed up: as §1
For the compound `CCOC(=O)CSc1nn(-c2ccc(F)cc2)c(-c2ccc(F)cc2)c1Br` [Example I-019], the “Post-emergence action against MATIN” value stood at 100%.
The same measure, in the same setting: then `COC(=O)CNC(=O)CSc1nn(-c2ccccc2F)c(-c2cncc(F)c2)c1Br` [VII-009], with 90%.

The subject of another assay is Stellaria media. Briefly: Pre-emergence herbicidal effect against STEME. Format: in vivo. Conditions: 1280 g/ha, visual score after 3 weeks, 100% = plants have died, 0% = like control plants. Summed up:
as §2
Turning to `CCOC(=O)CSc1nn(-c2ccc(F)cc2)c(-c2ccc(F)cc2)c1Br` [Example I-019], the “Pre-emergence action against STEME” value came out at 90%.
For the compound `COC(=O)CNC(=O)CSc1nn(-c2ccccc2F)c(-c2cncc(F)c2)c1Br` [VII-009], the “Pre-emergence action against STEME” value came to 100%.

A further assay has as its system Alopecurus myosuroides. Briefly: Post-emergence herbicidal effect against ALOMY. It counts as in vivo. Conditions: 1280 g/ha, visual score after about 3 weeks, 100% = plants have died, 0% = like control plants. The essentials:
as §1
On to `CCOC(=O)CSc1nn(-c2ccc(F)cc2)c(-c2ccc(F)cc2)c1Br` [Example I-019], for which the “Post-emergence action against ALOMY” value came out at 100%.
As to `COC(=O)CNC(=O)CSc1nn(-c2ccccc2F)c(-c2cncc(F)c2)c1Br` [VII-009], the “Post-emergence action against ALOMY” value was found to be 90%.

For a further assay, the system named is Lolium rigidum. Briefly: Pre-emergence herbicidal effect against LOLRI. Format: in vivo. Conditions: 1280 g/ha, visual score after 3 weeks, 100% = plants have died, 0% = like control plants. The essentials: as §2
Turning to `COC(=O)CNC(=O)CSc1nn(-c2ccccc2F)c(-c2cncc(F)c2)c1Br` [VII-009], the “Pre-emergence action against LOLRI” value stood at 100%.

The test system of a further assay is Bassia scoparia. Briefly: Post-emergence herbicidal effect against KCHSC. Format: in vivo. Conditions: 1280 g/ha, visual assessment about 3 weeks after treatment, 100% = plants have died, 0% = like control plants. The essentials:
as §1
Consider `CCOC(=O)CSc1nn(-c2ccc(F)cc2)c(-c2ccc(F)cc2)c1Br` [Example I-019], for which the “Post-emergence action against KCHSC” value was found to be 100%.
The same measure, in the same setting: as for `COC(=O)CNC(=O)CSc1nn(-c2ccccc2F)c(-c2cncc(F)c2)c1Br` [VII-009], the figure is 90%.

The subject of a further assay is Poa annua. Briefly: Pre-emergence herbicidal effect against POAAN. It counts as in vivo. Conditions: 1280 g/ha, visual score after 3 weeks, 100% = plants have died, 0% = like control plants. The essentials: as §2
For `CCOC(=O)CSc1nn(-c2ccc(F)cc2)c(-c2ccc(F)cc2)c1Br` [Example I-019], the “Pre-emergence action against POAAN” value is recorded as 100%.
For the compound `COC(=O)CNC(=O)CSc1nn(-c2ccccc2F)c(-c2cncc(F)c2)c1Br` [VII-009], the “Pre-emergence action against POAAN” value is on record as 100%.

The subject of the next assay is Digitaria sanguinalis. Briefly: Post-emergence herbicidal effect against DIGSA. It counts as in vivo. Conditions: 1280 g/ha, visual score after about 3 weeks, 100% = plants have died, 0% = like control plants. The essentials:
as §1
Turning to `CCOC(=O)CSc1nn(-c2ccc(F)cc2)c(-c2ccc(F)cc2)c1Br` [Example I-019], the “Post-emergence action against DIGSA” value is 100%.

The test system of the next assay is Bassia scoparia. Briefly: Pre-emergence herbicidal effect against KCHSC. Format: in vivo. Conditions: 1280 g/ha, visual score after 3 weeks, 100% = plants have died, 0% = like control plants.
From the text: as §3
Consider `CCOC(=O)CSc1nn(-c2ccc(F)cc2)c(-c2ccc(F)cc2)c1Br` [Example I-019], for which the “Pre-emergence action against KCHSC” value came to 100%.

The next assay has as its system Alopecurus myosuroides. Briefly: Pre-emergence herbicidal effect against ALOMY. It counts as in vivo. Conditions: 1280 g/ha, visual score after 3 weeks, 100% = plants have died, 0% = like control plants. The essentials: as §2
As to `CCOC(=O)CSc1nn(-c2ccc(F)cc2)c(-c2ccc(F)cc2)c1Br` [Example I-019], the “Pre-emergence action against ALOMY” value is reported as 90%.
On the same count and under the same terms, then `COC(=O)CNC(=O)CSc1nn(-c2ccccc2F)c(-c2cncc(F)c2)c1Br` [VII-009], with 90%.

The subject of a further assay is Poa annua. Briefly: Post-emergence herbicidal effect against POAAN. It counts as in vivo. Conditions: 1280 g/ha, visual assessment about 3 weeks after treatment, 100% = plants have died, 0% = like control plants. Summed up:
as §1
As for `CCOC(=O)CSc1nn(-c2ccc(F)cc2)c(-c2ccc(F)cc2)c1Br` [Example I-019], the “Post-emergence action against POAAN” value was 100%.
Still for that read-out and setting: then `COC(=O)CNC(=O)CSc1nn(-c2ccccc2F)c(-c2cncc(F)c2)c1Br` [VII-009], with 100%.

The test system of the next assay is Stellaria media. Briefly: Post-emergence herbicidal effect against STEME. Conditions: 1280 g/ha, visual assessment about 3 weeks after treatment, 100% = plants have died, 0% = like control plants. It counts as in vivo. The essentials: as §1
On to `CCOC(=O)CSc1nn(-c2ccc(F)cc2)c(-c2ccc(F)cc2)c1Br` [Example I-019], for which the “Post-emergence action against STEME” value is 90%.
Same read-out and setting: as for `COC(=O)CNC(=O)CSc1nn(-c2ccccc2F)c(-c2cncc(F)c2)c1Br` [VII-009], the figure is 100%.

These data come from patent US20230126893A1, “[(1,4,5-TRISUBSTITUTED-1H-PYRAZOL-3-YL)SULFANYL]ACETIC ACID DERIVATIVES, SALTS THEREOF, AND USE THEREOF AS ACTIVE HERBICIDAL INGREDIENTS” (BAYER AKTIENGESELLSCHAFT, priority 2020, published 2023).
